Experimental data as given in paper PMC4767141, “Discovery of Potent, Orally Bioavailable, Small-Molecule Inhibitors of WNT Signaling from a Cell-Based Pathway Screen” (Journal of Medicinal Chemistry, 2015).
Like-named read-outs stand apart in the source and are kept apart here. Values belong to the compound of their own block, whether it stands above or below them.

Key:
[1] = pKa of the pyridine nitrogen; assay type: physicochemical; settings: measured at Cyprotex
Protocol: [32] pKa measurement was conducted at Cyprotex according to their published protocol: .

[2] = Caco-2 Papp determination; assay type: in vitro ADME, human
CYP450 2C19 = CYP450 2C19 (Homo sapiens, UniProt P33261); experiment: CYP450 inhibition; assay type: in vitro ADME
Chain of CYP450 2C19 (P33261 whole entry): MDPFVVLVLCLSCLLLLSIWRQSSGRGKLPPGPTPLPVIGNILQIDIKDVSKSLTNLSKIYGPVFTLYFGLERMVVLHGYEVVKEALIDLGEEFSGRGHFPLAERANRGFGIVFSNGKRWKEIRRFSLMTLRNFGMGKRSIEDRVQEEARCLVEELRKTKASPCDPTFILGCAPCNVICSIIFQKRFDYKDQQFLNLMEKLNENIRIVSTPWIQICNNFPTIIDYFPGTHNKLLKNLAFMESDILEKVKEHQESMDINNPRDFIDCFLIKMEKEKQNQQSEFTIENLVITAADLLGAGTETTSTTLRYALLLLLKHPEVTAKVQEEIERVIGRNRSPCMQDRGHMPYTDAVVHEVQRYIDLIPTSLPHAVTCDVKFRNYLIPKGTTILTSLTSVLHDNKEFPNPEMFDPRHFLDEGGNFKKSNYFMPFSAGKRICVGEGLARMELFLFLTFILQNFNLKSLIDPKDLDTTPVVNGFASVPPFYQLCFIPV

CYP450 2C9 = CYP450 2C9 (Homo sapiens, UniProt P11712); experiment: CYP450 inhibition; assay type: in vitro ADME
Chain of CYP450 2C9 (P11712 whole entry): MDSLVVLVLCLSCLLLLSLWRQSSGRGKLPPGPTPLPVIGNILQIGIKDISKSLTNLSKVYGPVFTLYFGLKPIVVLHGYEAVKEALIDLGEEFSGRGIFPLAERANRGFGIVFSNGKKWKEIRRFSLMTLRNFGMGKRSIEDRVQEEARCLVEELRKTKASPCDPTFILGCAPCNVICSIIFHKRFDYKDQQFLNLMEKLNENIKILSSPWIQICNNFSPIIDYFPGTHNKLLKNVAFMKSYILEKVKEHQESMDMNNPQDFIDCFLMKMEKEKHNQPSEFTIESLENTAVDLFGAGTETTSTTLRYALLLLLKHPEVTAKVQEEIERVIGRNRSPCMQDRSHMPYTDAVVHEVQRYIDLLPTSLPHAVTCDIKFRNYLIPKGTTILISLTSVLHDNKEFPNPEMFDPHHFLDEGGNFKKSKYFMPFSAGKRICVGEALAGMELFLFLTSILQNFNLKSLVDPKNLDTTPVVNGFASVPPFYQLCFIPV

CYP450 2D6 = CYP450 2D6 (Homo sapiens, UniProt P10635); experiment: CYP450 inhibition; assay type: in vitro ADME
Chain of CYP450 2D6 (P10635 whole entry): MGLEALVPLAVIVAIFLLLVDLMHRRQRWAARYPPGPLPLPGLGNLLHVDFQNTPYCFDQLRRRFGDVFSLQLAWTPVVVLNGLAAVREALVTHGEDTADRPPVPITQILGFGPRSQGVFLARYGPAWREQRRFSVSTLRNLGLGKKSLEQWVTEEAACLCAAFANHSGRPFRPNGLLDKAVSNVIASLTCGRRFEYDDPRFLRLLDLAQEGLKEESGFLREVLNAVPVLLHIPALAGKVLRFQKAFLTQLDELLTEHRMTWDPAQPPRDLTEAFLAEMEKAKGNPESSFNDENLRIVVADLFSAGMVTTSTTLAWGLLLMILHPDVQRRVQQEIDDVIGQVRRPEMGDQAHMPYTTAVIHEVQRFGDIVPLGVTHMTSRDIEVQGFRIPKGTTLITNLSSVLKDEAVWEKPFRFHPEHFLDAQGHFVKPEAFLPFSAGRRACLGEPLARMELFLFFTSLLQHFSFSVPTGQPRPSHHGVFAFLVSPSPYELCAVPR

CYP450 1A2 = CYP450 1A2 (Homo sapiens, UniProt P05177); experiment: CYP450 inhibition
Chain of CYP450 1A2 (P05177 whole entry): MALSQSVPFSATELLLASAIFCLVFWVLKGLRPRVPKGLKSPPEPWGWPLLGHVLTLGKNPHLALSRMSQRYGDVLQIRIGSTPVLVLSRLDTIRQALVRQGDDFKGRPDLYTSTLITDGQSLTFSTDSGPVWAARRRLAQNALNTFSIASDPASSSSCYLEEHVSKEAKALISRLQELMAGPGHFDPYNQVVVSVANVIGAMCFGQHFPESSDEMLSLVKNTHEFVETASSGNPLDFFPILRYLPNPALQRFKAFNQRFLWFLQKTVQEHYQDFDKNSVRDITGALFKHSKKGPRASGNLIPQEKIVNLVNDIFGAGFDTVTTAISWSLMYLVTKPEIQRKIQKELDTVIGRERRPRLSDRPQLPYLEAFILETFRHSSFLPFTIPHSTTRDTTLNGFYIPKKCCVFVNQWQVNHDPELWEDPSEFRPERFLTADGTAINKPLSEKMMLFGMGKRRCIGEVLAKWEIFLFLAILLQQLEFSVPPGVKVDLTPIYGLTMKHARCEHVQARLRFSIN

CYP450 2B8 = CYP450 2B8 (Homo sapiens, UniProt P20813); experiment: CYP450 inhibition
Chain of CYP450 2B8 (P20813 whole entry): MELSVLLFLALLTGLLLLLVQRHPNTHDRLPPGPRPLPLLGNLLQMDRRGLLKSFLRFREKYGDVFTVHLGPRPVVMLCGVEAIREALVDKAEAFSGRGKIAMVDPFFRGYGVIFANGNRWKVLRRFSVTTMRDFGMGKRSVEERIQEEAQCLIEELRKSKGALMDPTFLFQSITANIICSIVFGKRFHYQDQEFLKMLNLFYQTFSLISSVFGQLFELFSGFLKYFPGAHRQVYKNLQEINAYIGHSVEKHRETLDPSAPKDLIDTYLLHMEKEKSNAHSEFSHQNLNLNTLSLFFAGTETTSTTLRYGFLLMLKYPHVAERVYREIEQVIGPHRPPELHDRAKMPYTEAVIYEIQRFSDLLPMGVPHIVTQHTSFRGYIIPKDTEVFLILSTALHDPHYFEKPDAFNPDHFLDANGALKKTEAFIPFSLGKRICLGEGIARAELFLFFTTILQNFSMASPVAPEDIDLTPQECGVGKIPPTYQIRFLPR

In vivo mouse PK = settings: iv dosing
Clint determination [3] = assay type: in vitro ADME; settings: mouse, microsomes, pH 7.4, mouse microsomes, read-out: Clint (μL/min/mg) Mouse
Clint determination [4] = assay type: in vitro ADME; settings: human, microsomes, pH 7.4, human microsomes, read-out: Clint (μL/min/mg) Human
Clint determination [5] = assay type: in vitro ADME; settings: rat, microsomes, pH 7.4, rat microsomes, read-out: Clint (μL/min/mg) Rat
[6] = Aqueous (thermodynamic) solubility; assay type: physicochemical; settings: phosphate buffer pH 7.4

pKa [1]: 9.42
Compound: c1cc(N2CCCCC2)ccn1 [4-(piperidin-1-yl)pyridine]

Compound: NC(=O)C1CCN(c2c(Cl)cncc2Cl)CC1 [Compound 9, 1-(3,5-Dichloropyridin-4-yl)piperidine-4-carboxamide]
Caco-2 efflux (efflux ratio, ER) [2]: no efflux | Papp at 2 h, 1 μM ([2]; human, Caco-2, 1 μM, pH 7.4): 36 ×10⁻⁶ cm/s | IC50 (CYP450 2C19): > 20 µM | IC50 (CYP450 2C9): > 20 µM | IC50 (CYP450 2D6): > 20 µM | IC50 (CYP450 1A2): > 20 µM | IC50 (CYP450 2B8): > 20 µM

in vivo clearance (In vivo mouse PK): greater than liver blood flow
Compound: NC(=O)C1CCN(c2c(Cl)cncc2-c2ccc(N3CCOCC3)cc2)CC1 [Compound 38, 1-(3-Chloro-5-(4-morpholin-4-ylphenyl)pyridin-4-yl)piperidine-4-carboxamide]

microsomal CLint at 1 μM (Clint determination [3]): 827 µL/min/mg | microsomal CLint at 1 μM (Clint determination [4]): 335 µL/min/mg
Compound: O=C1NCCC12CCN(c1c(Cl)cncc1-c1ccc(N3CCOCC3)cc1)C2 (centres unmarked) [Compound 52]

microsomal CLint at 1 μM (Clint determination [3]): 54 µL/min/mg | microsomal CLint at 1 μM (Clint determination [5]): 23 µL/min/mg | microsomal CLint at 1 μM (Clint determination [4]): 67 µL/min/mg
Compound: O=C1CC2(CCN(c3c(Cl)cncc3-c3ccc(N4CCOCC4)cc3)CC2)C(=O)N1 [Compound 54, 8-(3-Chloro-5-(4-morpholin-4-ylphenyl)pyridin-4-yl)-2,8-diazaspiro[4.5]decan-1,3-dione]

microsomal CLint at 1 μM (Clint determination [3]): > 1000 µL/min/mg
Compound: O=C1NCCC12CCN(c1c(Cl)cncc1-c1ccc(N3CCCCC3)cc1)CC2 [Compound 65]

microsomal CLint at 1 μM (Clint determination [4]): 100 µL/min/mg
Compound: O=C1NCCC12CCN(c1c(Cl)cncc1-c1ccc(-c3ccncc3)cc1)CC2 [Compound 69]

solubility [6]: < 1 µg/mL
Compound: Cn1cc(-c2ccc(-c3cncc(Cl)c3N3CCC4(CC3)CC(=O)NC4=O)cc2)cn1 [Compound 81, 8-(3-Chloro-5-(4-(1-methyl-1H-pyrazol-4-yl)phenyl)pyridin-4-yl)-2,8-diazaspiro[4.5]decane-1,3-dione]
